Laboratory results: patent US4992444A, “Antifolate agents” (priority 1986, dated 1991)
Where two headings read alike, the source gives them in different places.

Columns and labels:
[1] = system: P388 lymphocytic leukaemia; test: In vivo antitumor screening against P388 lymphocytic leukaemia in mice; details: Mus musculus, P388, ip, free base, intraperitoneal, NCI protocols, read-out: Optimum T/C; for response vs control in vivo at 100 mg/kg: optimum dose 100 mg/kg; for response vs control in vivo at 240 mg/kg: optimum dose 240 mg/kg; for response vs control in vivo at 200 mg/kg: optimum dose 200 mg/kg
Source text: ^a All compounds administered to mice as free bases via
intraperitoneal route according to NCI protocols.

[2] = system: L1210 murine leukaemia cells; test: In vitro cytotoxicity against L1210 cells; assay type: cell-based; details: Mus musculus
Protocol: In vitro cytotoxicity studies
Cells were seeded routinely every 72 hours at 10^4 cells.ml^-1 and counted as 10^6 cells.ml^-1 prior to each experiment and counts were performed following incubation (5% CO2 in air at full humidity) for 72 hours at 37° C., with the appropriate concentration of drug.

[3] = molecular target: T1, rat liver DHFR (Rattus norvegicus, UniProt Q920D2); test: Inhibition of rat liver DHFR (spectrophotometric assay; I50 and Ki); assay type: biochemical
T1 construct: from tissue; host or cells: liver of male Wistar rats; homogenate supernatant, pH 5.1 step, dialysed, partially purified
T1 sequence (Q920D2 1-187): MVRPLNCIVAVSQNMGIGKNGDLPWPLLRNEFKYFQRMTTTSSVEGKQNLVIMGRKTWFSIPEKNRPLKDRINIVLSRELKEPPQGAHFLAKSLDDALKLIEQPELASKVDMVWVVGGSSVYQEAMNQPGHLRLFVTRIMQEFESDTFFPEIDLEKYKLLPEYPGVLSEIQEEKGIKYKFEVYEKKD
Protocol: All solutions were prepared on the day previous to the experiment and stored in the dark at 4° C. prior to use.
The stock solutions were diluted, as necessary, immediately before use to produce the required inhibitor concentration.
B.1 Preparation of partially purified DHFR
All further manipulations were performed at 4° C.: the livers (30.7 g) were transferred to a Waring blender to which approximately 8 volumes of water was added (final volume c.a. 300 ml), whereupon the mixture was homogenised for 2 minutes for periods of 30s, allowing 30s between each run to minimise heating. Liver homogenate was centrifuged at approximately 20,000 g for 20 minutes and the pellet was discarded. The supernatant liquid was adjusted to pH 5.1 with dilute acetic acid (1.0 M initially and 0.1 M finally) and after centrifugation at 27,000 g for a further 20 minutes, the clear wine-red solution was transferred to visking tubing (2.5 cm diameter) and dialysed for 12 hours against 0.01 sodium acetate buffer solution. The dialysate was examined and if turbid, centrifuged again at 27,000 g for 20 minutes. The clear preparation was transferred to sterile plastic stoppered tubes (10 ml) and stored at -10° C. prior to use.
B.2. Preparation of reagent solutions
The buffer was kept at 4° C. to prevent bacterial growth and discarded after 3 days.
The solution was maintained at 0° C.
An aqueous solution of NADPH (2 mg.ml^-1, 2.0 mM) was prepared immediately prior to use and again maintained at 0° C.
B.3 Assay for inhibitor activity
Plastic disposable cuvettes were used throughout.
The assay was carried out as follows: NADPH (0.1 ml) and the enzyme preparation (0.1 ml) were incubated at 30° C. for 5 minutes in phosphate buffer (total volume 1.9 ml).
Reference cuvettes were set up containing NADPH, buffer, inhibitor if appropriate and dihydrofolate, but without enzyme (Table A).
Enzyme activity was estimated from the slope of the change of absorbance with time and this was arbitrarily designated as 100% for the uninhibited enzyme.
The remaining inhibitors were selected for I50 determinations and inhibitory activity was evaluated in duplicate at a minimum of four inhibitor concentrations, from which the I50 value was determined by a graphical method.
Compounds selected for inhibition constant (KI) determinations were assayed following an identical method to that described above except that inhibitory activity was measured at a minimum of ten inhibitor concentrations, again in duplicate, from which the appropriate KI values were determined by a Zone B analysis.

[4] = system: M5076 reticulum cell sarcoma; assay type: in vivo; details: for Death: mouse, in vivo;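 on all read-outs here: mice bearing tumor implanted intramuscularly on day 1, given compound intraperitoneally once a day for 17 days in arachis oil containing 10% DMSO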
Source text: Tumor: implanted intramuscularly on day 1
Drug: in 10% DMSO/arachis oil administered daily for
17 days by intraperitoneal route.
*Test/Control assessed at day 24

[5] = Table III, drug concentration necessary to reduce the 72 hour cell count to 50% of control, read-out: IC50, cytotoxicity against L1210 cells in vitro
[6] = Table II, rat liver DHFR, 95% confidence limits, read-out: Ki
[7] = Table IV, 72 hours, read-out: IC50 (L1210 cells)
[8] = Table IV, read-out: I50, rat liver dihydrofolate reductase
[9] = 0.75 mg/kg/day, Test/Control assessed at day 24, i.p.
[10] = 3.125 mg/kg/day, Test/Control assessed at day 24, i.p.
[11] = 6.25 mg/kg/day, Test/Control assessed at day 24, i.p.
[12] = 12.5 mg/kg/day, Test/Control assessed at day 24, i.p.
[13] = Table I, solvent B = 0.1 M hydrochloric acid, read-out: I50, inhibition of rat liver DHFR

**Q.** CCc1nc(N)nc(N)c1-c1ccc(NC(C)c2ccccc2)c([N+](=O)[O-])c1 (racemic) [Compound 9, 2,4-diamino-6-ethyl-5-(4-(±)-α-methylbenzylamino-3-nitrophenyl)-pyrimidine] was tested. Which response vs control in vivo at 30 mg/kg ([1]; optimum dose 30 mg/kg) did it give?
**A.** 132%

**Q.** CCc1nc(N)nc(N)c1-c1ccc(NC)c([N+](=O)[O-])c1 [Compound 1, 2,4-Diamino-5-(4-methylamino-3-nitrophenyl)-6-ethylpyrimidine] was tested. Which response vs control in vivo at 100 mg/kg [1] did it give?
**A.** 182%

**Q.** How did the response vs control in vivo at 100 mg/kg [1] turn out when CCc1nc(N)nc(N)c1-c1ccc(N(C)C)c([N+](=O)[O-])c1 [Compound 3, 2,4-Diamino-5-(4-dimethylamino-3-nitrophenyl)-6-ethylpyrimidine] was run?
**A.** 145%

**Q.** Which results are given for CCCCNc1ccc(-c2c(N)nc(N)nc2CC)cc1[N+](=O)[O-] [Compound 4, 2,4-Diamino-5-(4-n-butylamino-3-nitrophenyl)-6-ethylpyrimidine]?
**A.** response vs control in vivo at 240 mg/kg [1]: 206%; IC50 [2, 5]: 200 nM; Ki ([3]; Table II, rat liver DHFR, 95% confidence limits, tested as ethanesulphonate salt, read-out: Ki): 0.19 ± 0.05 nM

**Q.** Which response vs control in vivo at 240 mg/kg [1] does the source give for CCc1nc(N)nc(N)c1-c1ccc(NCc2ccccc2)c([N+](=O)[O-])c1 [Compound 5, 2,4-Diamino-5-(4-benzylamino-3-nitrophenyl)-6-ethylpyrimidine] here?
**A.** 126%

**Q.** What about the IC50 [2, 5] of the same compound?
**A.** < 1 nM

**Q.** With CCc1nc(N)nc(N)c1-c1ccc(N(C)Cc2ccccc2)c([N+](=O)[O-])c1 [Compound 6, 2,4-Diamino-6-ethyl-5-(4-N-methylbenzylamino-3-nitrophenyl)pyrimidine] as the compound, how does the response vs control in vivo at 480 mg/kg ([1]; optimum dose 480 mg/kg) read?
**A.** 205%

**Q.** With CCc1nc(N)nc(N)c1-c1ccc(N(CC)Cc2ccccc2)c([N+](=O)[O-])c1 [Compound 7, 2,4-Diamino-6-ethyl-5-(4-N-ethylbenzylamino-3-nitrophenyl)pyrimidine] as the compound, how does the response vs control in vivo at 200 mg/kg [1] read?
**A.** 144%

**Q.** And the Ki [3, 6]?
**A.** 0.04 ± 0.03 nM

**Q.** CCc1nc(N)nc(N)c1-c1ccc(NCCc2ccccc2)c([N+](=O)[O-])c1 [Compound 10, 2,4-Diamino-6-ethyl-5-(3-nitro-4-phenethylaminophenyl)-pyrimidine] was tested. Which response vs control in vivo at 200 mg/kg [1] did it give?
**A.** 142%

**Q.** Which IC50 [2, 7] does the source give for CCc1nc(N)nc(N)c1-c1ccc(N(C)Cc2ccc(C(=O)OC)cc2)c([N+](=O)[O-])c1 [Compound 15, 2,4-Diamino-6-ethyl-5-{4-[N-(4-methoxycarbonylbenzyl)-N-methylamino]-3-nitrophenyl}pyrimidine] here?
**A.** 100 nM

**Q.** Which IC50 [2, 7] does the source give for CCOCCOC(=O)c1ccc(CN(C)c2ccc(-c3c(N)nc(N)nc3CC)cc2[N+](=O)[O-])cc1 [Compound 16] here?
**A.** 40 nM

**Q.** And the IC50 [3, 8]?
**A.** 1.5 nM

**Q.** Which IC50 [2, 7] does the source give for CCc1nc(N)nc(N)c1-c1ccc(N(C)Cc2ccc(OC)cc2)c([N+](=O)[O-])c1 [Compound 17, 2,4-Diamino-6-ethyl-5-{4-[N-(4-methoxybenzyl)-N-methylamino]-3-nitrophenyl}pyrimidine] here?
**A.** 70 nM

**Q.** How did the IC50 [2, 7] turn out when CCc1nc(N)nc(N)c1-c1ccc(NCc2ccc(OC)cc2)c([N+](=O)[O-])c1 [Compound 18, 2,4-Diamino-6-ethyl-5-{4-[N-(4-methoxybenzyl)amino]-3-nitrophenyl}pyrimidine] was run?
**A.** 50 nM

**Q.** And the IC50 [3, 8]?
**A.** 21 nM

**Q.** What about the Ki ([3]; Table IV, read-out: Ki, rat liver dihydrofolate reductase) of the same compound?
**A.** 0.088 nM

**Q.** For CCc1nc(N)nc(N)c1-c1ccc(N(C)Cc2ccc(C(=O)NC)cc2)c([N+](=O)[O-])c1 [Compound 19, 2,4-Diamino-6-ethyl-5-(4-{N-[4-(N-methylcarbamoyl)benzyl]-N-methylamino}-3-nitrophenyl)pyrimidine], which “T/C × 100” value [4, 9] is on record?
**A.** 67

**Q.** And the “T/C × 100” value [4, 10]?
**A.** 41

**Q.** What about the “T/C × 100” value [4, 11] of the same compound?
**A.** 30

**Q.** And the “T/C × 100” value [4, 12]?
**A.** 15

**Q.** And the Tumor volume ([4]; ip, 12.5 mg/kg)?
**A.** 443 mm^3

**Q.** What about the IC50 [2, 7] of the same compound?
**A.** 25 nM

**Q.** Which results are given for CCc1nc(N)nc(N)c1-c1ccc(N(C)Cc2ccc(C(=O)O)cc2)c([N+](=O)[O-])c1.O [Compound 20, 2,4-Diamino-6-ethyl-5-{4-[N-(4-carboxybenzyl)-N-methylamino]-3-nitrophenyl}pyrimidine monohydrate]?
**A.** T/C × 100 [4, 9]: 100; T/C × 100 [4, 10]: 107; T/C × 100 [4, 11]: 89; T/C × 100 [4, 12]: 100; IC50 [2, 7]: 15 nM

**Q.** With CCc1nc(N)nc(N)c1-c1ccc(NCc2ccc(Cl)c(Cl)c2)c([N+](=O)[O-])c1 [Compound 23, 2,4-Diamino-5-[4-(3,4-dichlorobenzylamino)-3-nitrophenyl]-6-ethylpyrimidine] as the compound, how does the “T/C × 100” value ([4]; ip, 3.125 mg/kg, 576 h) read?
**A.** 48

**Q.** And the “T/C × 100” value ([4]; ip, 6.25 mg/kg, 576 h)?
**A.** 36

**Q.** And the “T/C × 100” value ([4]; ip, 12.5 mg/kg, 576 h)?
**A.** 16

**Q.** What about the “T/C × 100” value ([4]; ip, 25 mg/kg, 576 h) of the same compound?
**A.** < 8

**Q.** What about the “T/C × 100” value ([4]; ip, 50 mg/kg, 576 h) of the same compound?
**A.** < 8

**Q.** What does the source list for CCc1nc(N)nc(N)c1-c1ccc(NCc2ccc(C)cc2)c([N+](=O)[O-])c1 [Compound 25, 2,4-Diamino-5-[4-(4-methylbenzylamino)-3-nitrophenyl]-6-ethylpyrimidine]?
**A.** T/C × 100 ([4]; ip, 3.125 mg/kg, 576 h): 76; T/C × 100 ([4]; ip, 6.25 mg/kg, 576 h): 44; T/C × 100 ([4]; ip, 12.5 mg/kg, 576 h): 24; T/C × 100 ([4]; ip, 25 mg/kg, 576 h): 20; Death [4]: Dead

**Q.** CCc1nc(N)nc(N)c1-c1ccc(NCc2ccc(C(F)(F)F)cc2)c([N+](=O)[O-])c1 [Compound 28, 2,4-diamino-5-[3-nitro-4-(4-trifluoromethylbenzylamino)phenyl]-6-ethylpyrimidine] was tested. Which “T/C × 100” value ([4]; ip, 3.125 mg/kg, 576 h) did it give?
**A.** 40

**Q.** What about the Tumor volume ([4]; ip, 6.25 mg/kg) of the same compound?
**A.** 454 mm^3

**Q.** What about the “T/C × 100” value ([4]; ip, 6.25 mg/kg, 576 h) of the same compound?
**A.** 20

**Q.** And the Tumor volume ([4]; ip, 12.5 mg/kg)?
**A.** 265 mm^3

**Q.** What about the “T/C × 100” value ([4]; ip, 12.5 mg/kg, 576 h) of the same compound?
**A.** 12

**Q.** And the “T/C × 100” value ([4]; ip, 25 mg/kg, 576 h)?
**A.** < 8

**Q.** What about the “Death” value [4] of the same compound?
**A.** Dead

**Q.** What does the source list for CCCCOc1ccc(-c2c(N)nc(N)nc2CC)cc1[N+](=O)[O-] [OBu^n]?
**A.** IC50 ([3]; Table I, solvent A = water, tested as ethanesulphonate salt, read-out: I50, inhibition of rat liver DHFR): 60 nM; Ki [3, 6]: 0.08 ± 0.06 nM

**Q.** With CCOc1ccc(-c2c(N)nc(N)nc2CC)cc1[N+](=O)[O-] [OEt] as the compound, how does the IC50 [3, 13] read?
**A.** 140 nM

**Q.** CCc1nc(N)nc(N)c1-c1ccc(OC)c([N+](=O)[O-])c1 [OMe] was tested. Which response vs control in vivo at 120 mg/kg ([1]; optimum dose 120 mg/kg) did it give?
**A.** 189%

**Q.** And the IC50 [3, 13]?
**A.** 180 nM

**Q.** Which response vs control in vivo at 50 mg/kg ([1]; optimum dose 50 mg/kg) does the source give for Cc1nc(N)nc(N)c1-c1ccc(Cl)c(Cl)c1 [metoprine, reference compound] here?
**A.** 140%
